Reference: patent publication US10021880B2, “Diarylimidazole compound and harmful organism control agent” (Nippon Soda Co., Ltd., priority 2014, dated 2018)

Experiments:
Spodoptera litura = assay: Efficacy test against Spodoptera litura (cabbage leaf dip); assay type: in vivo; settings: foliar, 144 h, cabbage leaves soaked 30 seconds, second-instar larvae, after 6 days, 25° C., read-out: insect mortality rate against Spodoptera litura
Protocol: (§1) 5 parts of the compound of the present invention, 93.6 parts of dimethyl formamide and 1.4 parts of polyoxyethylene alkylaryl ether were mixed and dissolved to obtain emulsion (I) including 5% of active ingredient.
(§2) Emulation (I) was diluted with water so that the concentration of the compound of the present invention reaches 125 ppm. Cabbage leaves were soaked in the diluted liquid for 30 seconds. Then the cabbage leaves were put on Petri dishes, followed by inoculating 5 second-instar larvae of Spodoptera litura. The Petri dishes were placed in a temperature-controlled room with a temperature was 25° C. and humidity of 60%. Mortality was investigated after 6 days were passed, and the insect mortality rate was calculated. The test was repeated twice.

Plutella xylostella = assay: Efficacy test against Plutella xylostella (cabbage leaf dip); assay type: in vivo; settings: foliar, 72 h, cabbage leaves soaked 30 seconds, second-instar larvae, after 3 days, 25° C., read-out: mortality rate against Plutella xylostella
Protocol: as §1
as §2, with “Emulsion (I)” for “Emulation (I)”, “of Plutella xylostella.” for “of Spodoptera litura.”, “after 3” for “after 6”

Pseudaletia separate = assay: Efficacy test against Pseudaletia separate (maize leaf dip); assay type: in vivo; settings: foliar, 144 h, maize leaves soaked 30 seconds, second-instar larvae, after 6 days, 25° C., read-out: insect mortality rate against Pseudaletia separate
Protocol: as §1
as §2, with “Emulsion (I)” for “Emulation (I)”, “ppm. Maize” for “ppm. Cabbage”, “the maize” for “the cabbage”, “of Pseudaletia separate.” for “of Spodoptera litura.”, “temperature of” for “temperature was”

Aphis gossypii [1] = assay: Efficacy test against Aphis gossypii (spray on cucumber seedlings); assay type: in vivo; settings: sprayed on cucumber seedlings inoculated with nymphs, 4 days after spraying, read-out: mortality rate against Aphis gossypii
Protocol: as §1
Cucumber plants were raised in No. 3 pots and the first true leaves were inoculated with nymphs of Aphis gossypii. Emulation (I) was diluted with water so that the concentration of the compound of the present invention reaches 125 ppm, followed by spraying the diluted liquid on the cucumber seedlings. The cucumber seedlings were then placed in a temperature-controlled room with a temperature of 25° C. and humidity of 60%. Mortality was investigated after 4 days were passed from the spraying, and the insect mortality rate of Aphis gossypii was calculated. The test was repeated twice.

Tetranychus kanzawai = assay: Efficacy test against Tetranychus kanzawai (spray on kidney bean seedlings); assay type: in vivo; settings: 240 h, sprayed on kidney bean seedlings, adult mortality 10 days after spraying, 25° C., humidity 65%, read-out: mortality rate against Tetranychus kanzawai
Protocol: as §1
Kidney bean plants were raised in No. 3 pots and the primary leaves were inoculated with 10 adult female Tetranychus kanzawai. Emulation (I) was diluted with water so that the concentration of the compound of the present invention reaches 125 ppm, followed by spraying the diluted liquid on the kidney bean seedlings. The kidney bean seedlings were then placed in a temperature-controlled room with a temperature of 25° C. and humidity of 65%. Mortality of the adult Tetranychus kanzawai was investigated after 10 days were passed from the spraying, and the insect mortality rate of Tetranychus kanzawai was calculated. The test was repeated twice.

Musca domestica = assay: Efficacy test against Musca domestica (treated cube sugar); assay type: in vivo; settings: 100 ppm on cube sugar, after 24 hours, 25° C.
Protocol: The compound of the present invention was diluted with acetone, followed by dropping to 1 g of cube sugar so that the concentration reaches to 100 ppm. The cube sugar was placed in a plastic cup and 10 adult female Musca domestica were released therein, followed by putting the lid on the cup. The cup was kept at 25° C., the mortality was investigated after 24 hours was passed from the releasing of Musca domestica and the insect mortality rate was calculated by the following equation. The test was repeated twice. Insect mortality rate (%)=(number of dead insects/number of sample insects)×100

Culex pipiens = assay: Efficacy test against Culex pipiens (larvae in chemical solution); assay type: in vivo; settings: 2 ppm in water, after 1 day
Protocol: as §1
Emulsion (I) was diluted with water so that the concentration of the compound of the present invention reaches 2 ppm to prepare a chemical solution for test. 20 first-instar larvae of Culex pipiens were released into 100 ml of the chemical solution for test, then the number of dead insects was calculated after 1 day was passed, and the insect mortality rate was calculated by the following equation. The test was repeated twice. Insect mortality rate (%)=(number of dead insects/number of sample insects)×100

Aphis gossypii [2] = assay: Efficacy test against Aphis gossypii (root-dipping test); assay type: in vivo; settings: 8 ppm in hydroponic liquid, cucumber, nymphs, after 6 days
Text: as §1
Cucumber plants raised in No. 3 pots were pulled out from the pots, then the soil attached to the roots was washed with tap water, followed by hydroponic-cultivating the cucumber plants by soaking the roots in tap water. The cucumber seedlings were inoculated with nymphs of Aphis gossypii. Emulsion (I) was diluted with water to obtain a diluted liquid with a concentration of 8 ppm of the compound of the present invention. The tap water was replaced with the diluted liquid, and then the hydrophonic-cultivation was continued in a temperature-controlled room with a temperature was 25° C. and humidity of 60%.
After 6 days were passed from the hydrophonic-cultivation in the diluted liquid, mortality of Aphis gossypii was investigated and the insect mortality rate was calculated. The test was repeated twice.

| SMILES | mortality at 125 ppm (Spodoptera litura) | mortality at 125 ppm (Plutella xylostella) | mortality at 125 ppm (Pseudaletia separate) | also measured |
| --- | --- | --- | --- | --- |
| CCSc1cc(C(F)(F)F)ccc1-c1ncc(-c2ccc(C(F)(F)F)cc2)n1C [Compound 1-7, 2-(2-(ethylsulfanyl)-4-(trifluoromethyl)phenyl)-1-methyl-5-(4-(trifluoromethyl)phenyl)-1H-imidazole] | ≥ 80% | ≥ 80% | ≥ 80% |  |
| CCS(=O)(=O)c1cc(C(F)(F)F)ccc1-c1ncc(-c2ccc(C(F)(F)F)cc2)n1C [Compound 1-3, 2-(2-(ethylsulfonyl)-4-(trifluoromethyl)phenyl)-1-methyl-5-(4-(trifluoromethyl)phenyl)-1H-imidazole] | ≥ 80% | ≥ 80% | ≥ 80% | mortality at 125 ppm (Aphis gossypii [1]): ≥ 80% |
| Cn1c(-c2ccc(C(F)(F)F)cc2)c[n+]([O-])c1-c1ccc(C(F)(F)F)cc1F |  |  |  | melting point: 229 to 231 °C |
| Cn1c(-c2ccc(C(F)(F)F)cc2)cnc1-c1ccc(C(F)(F)F)cc1F [Compound 1-4, 2-(2-fluoro-4-(trifluoromethyl)phenyl)-1-methyl-5-(4-(trifluoromethyl)phenyl)-1H-imidazole] |  |  |  | mortality at 125 ppm (Tetranychus kanzawai): ≥ 90% |
| CCS(=O)(=O)c1cc(C(F)(F)F)ccc1-c1ncc(-c2ccc(OC(F)(F)F)cc2)n1C [Compound 1-35] |  |  |  | insect mortality rate against the adult female Musca domestica (Musca domestica): 100%; insect mortality rate against the first-instar larvae of Culex pipiens (Culex pipiens): 100% |
| CCS(=O)(=O)c1cnccc1-c1ncc(-c2ccc(C(F)(F)F)cc2)n1C [Compound 3-1] |  |  |  | insect mortality rate (Aphis gossypii, root-dipping test) (Aphis gossypii [2]): ≥ 80% |
